For one data set, the target named is Cholinesterase (Homo sapiens, UniProt P06276). In words: Inhibition of human BuChE using butyrylthiocholine iodide as substrate preincubated with enzyme for 1 min followed by substrate addition and measured after 10 mins by Ellman's method. Background: In Ellman's method for cholinesterases, released thiocholine reacts with DTNB.
The target in a further data set is Acetylcholinesterase (Homo sapiens, UniProt P22303). Put plainly: Inhibition of human AChE using acetylthiocholine iodide as substrate preincubated with enzyme for 1 min followed by substrate addition and measured after 10 mins by Ellman's method.
For data set [1], the target named is Glycogen synthase kinase-3 beta (Homo sapiens, UniProt P49841). In words: biochemical.
Description: Inhibition of recombinant human N-terminal His6-tagged GSK-3beta H350L mutant expressed in baculovirus infected Sf21 cells using GSM as substrate incubated for 30 mins in presence of ATP by kinase-glo luminescence assay
Another data set can be described thus: in vitro. The conditions noted are these: PAMPA.
Data set [2] is described as follows: Effect on swimming speed in ICR mouse model of scopolamine-induced memory impairment at 15 mg/kg, po administered 30 mins prior to scopolamine injection by Morris water maze test. The class given is ADME, organism-based. As to conditions: in vivo, 0.5 h.
For a further data set, the system named is BV-2. Put plainly: Inhibition of LPS-induced ROS production in mouse BV-2 cells at 5 uM incubated for 1 hr followed by LPS stimulation and measured after 24 hrs by DCFH-DA staining based inverted fluorescence microscopic analysis. The class given is functional, cell-based. As to conditions: time 25.0 hrs.
The subject of another data set is Mus musculus. In words: Cognitive enhancing effect in ICR mouse model of scopolamine-induced memory impairment assessed as improvement in trajectories to platform at 15 mg/kg, po administered 30 mins prior to scopolamine injection by Morris water maze test. The class given is functional, organism-based.
A short description of data set [3]: Effect on cell morphology in LPS-treated mouse BV-2 cells at 5 uM pretreated for 1 hr followed by incubation with LPS for 24 hrs by fluorescence microscopic analysis. The class given is ADME. The conditions noted are these: bv-2, 25 h.

As a reminder, the IC50 is the point on the concentration scale where inhibition reaches its midpoint. Higher therefore signals weaker potency. As usually defined, the Papp is the rate of passage across a membrane or cell layer, normalised by area and donor concentration. A lower Papp goes with slow passage.

Activity calls are given as the source filed them. The rule behind the calls is not given here.

Glycogen synthase kinase-3 beta, sequence (P49841 whole entry): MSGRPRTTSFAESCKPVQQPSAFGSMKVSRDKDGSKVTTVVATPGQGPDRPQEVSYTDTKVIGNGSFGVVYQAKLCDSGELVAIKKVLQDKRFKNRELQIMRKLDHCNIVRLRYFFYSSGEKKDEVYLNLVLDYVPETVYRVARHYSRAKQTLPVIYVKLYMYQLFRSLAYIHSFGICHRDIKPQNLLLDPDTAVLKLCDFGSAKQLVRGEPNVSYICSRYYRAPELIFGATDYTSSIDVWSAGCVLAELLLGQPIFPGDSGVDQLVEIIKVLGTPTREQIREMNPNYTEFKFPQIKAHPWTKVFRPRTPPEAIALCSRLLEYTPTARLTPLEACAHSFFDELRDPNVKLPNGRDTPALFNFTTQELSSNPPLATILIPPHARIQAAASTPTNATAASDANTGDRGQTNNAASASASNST
Cholinesterase, sequence (P06276 whole entry): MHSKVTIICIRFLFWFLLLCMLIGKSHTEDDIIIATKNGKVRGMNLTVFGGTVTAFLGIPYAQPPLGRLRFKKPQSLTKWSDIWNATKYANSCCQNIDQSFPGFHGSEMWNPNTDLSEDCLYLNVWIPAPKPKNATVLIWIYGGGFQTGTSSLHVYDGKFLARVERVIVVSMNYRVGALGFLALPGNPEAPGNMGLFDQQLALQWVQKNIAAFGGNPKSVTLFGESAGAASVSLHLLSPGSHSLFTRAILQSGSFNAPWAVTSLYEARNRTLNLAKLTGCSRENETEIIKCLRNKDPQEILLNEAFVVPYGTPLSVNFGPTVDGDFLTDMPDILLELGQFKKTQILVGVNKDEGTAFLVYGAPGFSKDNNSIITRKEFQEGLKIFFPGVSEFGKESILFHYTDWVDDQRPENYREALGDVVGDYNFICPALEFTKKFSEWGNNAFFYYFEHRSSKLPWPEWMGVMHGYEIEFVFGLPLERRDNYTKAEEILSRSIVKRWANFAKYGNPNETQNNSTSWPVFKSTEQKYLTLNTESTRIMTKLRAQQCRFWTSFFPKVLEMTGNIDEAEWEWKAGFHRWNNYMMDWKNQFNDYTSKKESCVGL
Acetylcholinesterase, sequence (P22303 whole entry): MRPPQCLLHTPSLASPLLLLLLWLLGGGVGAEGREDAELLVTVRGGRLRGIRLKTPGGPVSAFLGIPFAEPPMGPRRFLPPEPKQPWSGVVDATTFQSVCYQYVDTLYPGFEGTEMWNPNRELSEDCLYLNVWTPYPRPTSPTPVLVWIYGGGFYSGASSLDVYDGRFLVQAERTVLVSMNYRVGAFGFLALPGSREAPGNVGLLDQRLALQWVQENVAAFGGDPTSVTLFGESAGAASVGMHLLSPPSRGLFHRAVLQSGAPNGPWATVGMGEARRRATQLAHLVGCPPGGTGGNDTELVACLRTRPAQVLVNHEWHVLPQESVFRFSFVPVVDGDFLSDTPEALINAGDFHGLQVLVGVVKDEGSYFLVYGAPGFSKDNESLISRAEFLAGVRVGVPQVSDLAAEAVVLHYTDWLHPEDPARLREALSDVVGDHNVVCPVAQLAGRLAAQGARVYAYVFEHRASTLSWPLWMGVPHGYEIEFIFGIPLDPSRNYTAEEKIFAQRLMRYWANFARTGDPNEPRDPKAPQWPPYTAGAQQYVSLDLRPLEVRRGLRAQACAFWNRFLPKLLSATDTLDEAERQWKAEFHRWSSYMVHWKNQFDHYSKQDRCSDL
Description for in vitro: Effective permeability of compound at 100 ug/ml incubated for 20 hrs by PAMPA-BBB assay

As to `O=C(NCCCNc1c2c(nc3ccccc13)CCCC2)c1sc(-c2ccnc(NC(=O)C3CC3)c2)nc1OCC1CC1`, the concentration for half-maximal inhibition (IC50) is 216 nM against Cholinesterase, 312 nM at Acetylcholinesterase and 104 nM in data set [1].
For `CNC(=O)c1sc(-c2ccnc(NC(=O)CNCCNc3c4c(nc5cc(Cl)ccc35)CCCC4)c2)nc1OCC1CC1`, in that order: 613 nM, 40.5 nM and 62.6 nM.
For `NC(=O)c1sc(-c2ccnc(NC(=O)C3CC3)c2)nc1OCCc1cn(-c2c3c(nc4ccccc24)CCCC3)nn1`, in that order: above 1000 nM, above 1000 nM and 6.5 nM.
For `CNC(=O)c1sc(-c2ccnc(NC(=O)C3CC3)c2)nc1OCCOCc1cn(-c2c3c(nc4ccccc24)CCCC3)nn1`, in that order: 200 nM, above 1000 nM and 83.9 nM.
As to `CNC(=O)c1sc(-c2ccnc(NC(=O)CNCCNc3c4c(nc5ccc(OC)cc35)CCCC4)c2)nc1OCC1CC1`, the IC50 at Cholinesterase was above 1000 nM; on Acetylcholinesterase it was 30.7 nM; in data set [1], 39.3 nM. In “in vitro”, this compound returned a Papp at 20 h, 100 ug/ml of 5.7 ×10⁻⁶ cm/s.
As for `CNC(=O)c1sc(-c2ccnc(NC(=O)CNCCNc3c4c(nc5ccccc35)CCCC4)c2)nc1OCC(C)C`, the values for the IC50 (against Cholinesterase; on Acetylcholinesterase; in data set [1]) were 619 nM, 49.2 nM and 132 nM, respectively.
For `CNC(=O)c1sc(-c2ccnc(NC(=O)CNCCNc3c4c(nc5ccccc35)CCCC4)c2)nc1OC` the same measures were 262 nM, 97.4 nM and 41.1 nM.
For `CNC(=O)c1sc(-c2ccnc(NC(=O)C3CC3)c2)nc1OCCc1cn(CCNc2c3c(nc4ccc(OC)cc24)CCCC3)nn1`, in that order: 37.5 nM, above 1000 nM and 37.1 nM.
For `CNC(=O)c1sc(-c2ccnc(NC(=O)C3CC3)c2)nc1OCCCc1cn(CCNc2c3c(nc4ccccc24)CCCC3)nn1`, in that order: 170 nM, 168 nM and 64.3 nM.
Consider `CNC(=O)c1sc(-c2ccnc(NC(=O)C3CC3)c2)nc1OCCOCc1cn(CCNc2c3c(nc4ccc(OC)cc24)CCCC3)nn1`, for which the IC50 was above 1000 nM on Cholinesterase, above 1000 nM against Acetylcholinesterase and 31 nM in data set [1].
Take `CNC(=O)c1sc(-c2ccnc(NC(=O)CNCCCCCCNc3c4c(nc5ccccc35)CCCC4)c2)nc1OCC1CC1`: the IC50 against Cholinesterase was found to be 8.2 nM; against Acetylcholinesterase, 21.9 nM; in data set [1] it was 62 nM.
For `CCCNC(=O)c1sc(-c2ccnc(NC(=O)CNCCNc3c4c(nc5ccccc35)CCCC4)c2)nc1OCC1CC1` the same measures were 89.5 nM, 4.9 nM and 239 nM.
For the compound `NC(=O)c1sc(-c2ccnc(NC(=O)CNCCNc3c4c(nc5ccccc35)CCCC4)c2)nc1OCC1CC1`, the 50% inhibitory concentration (IC50) on Cholinesterase turned out to be 190 nM; on Acetylcholinesterase, 0.8 nM; in data set [1], 42.6 nM. In “in vitro”, this compound displayed a Papp at 20 h, 100 ug/ml of 4.9 ×10⁻⁶ cm/s.
As for `CNC(=O)c1sc(-c2ccnc(NC(=O)C3CC3)c2)nc1OCCOCc1cn(CCNc2c3c(nc4ccccc24)CCCC3)nn1`, the Activity result in data set [2] and in data set [3] was “Non-Toxic” in each case. Also, the inhibition result with BV-2 was “Active”. The results for the IC50 (on Cholinesterase; against Acetylcholinesterase; in data set [1]) were 360 nM, 44.7 nM and 20.8 nM, respectively. Further, the outcome in the data set with Mus musculus was Active. In addition, in “in vitro”, the apparent permeability coefficient (Papp) at 20 h, 100 ug/ml came out at 4.6 ×10⁻⁶ cm/s.
Regarding `CNC(=O)c1sc(-c2ccnc(NC(=O)C3CC3)c2)nc1OCCOCc1cn(CCNc2c3c(nc4cc(Cl)ccc24)CCCC3)nn1`, the IC50 against Cholinesterase was above 1000 nM; at Acetylcholinesterase, 12.1 nM; in data set [1], 26.3 nM. The compound also came in with a Papp at 20 h, 100 ug/ml in the data set “in vitro” of 4.2 ×10⁻⁶ cm/s.
Consider `CNC(=O)c1sc(-c2ccnc(NC(=O)CNCCCCNc3c4c(nc5ccccc35)CCCC4)c2)nc1OCC1CC1`, for which the 50% inhibitory concentration (IC50) was 48.3 nM against Cholinesterase, 23.1 nM at Acetylcholinesterase and 41.6 nM in data set [1]. The compound further yielded an apparent permeability (Papp) at 20 h, 100 ug/ml in the data set “in vitro” of 7.1 ×10⁻⁶ cm/s.
On to `CNC(=O)c1sc(-c2ccnc(NC(=O)C3CC3)c2)nc1OCCc1cn(-c2c3c(nc4ccccc24)CCCC3)nn1`, for which the concentration for half-maximal inhibition (IC50) against Cholinesterase is 600 nM; at Acetylcholinesterase, above 1000 nM; in data set [1] it was 51.7 nM.
For `CNC(=O)c1sc(-c2ccnc(NC(=O)C3CC3)c2)nc1OCCCc1cn(CCNc2c3c(nc4ccc(OC)cc24)CCCC3)nn1` the same measures were above 1000 nM, above 1000 nM and 14.6 nM.
For `CNC(=O)c1sc(-c2ccnc(NC(=O)CNCCCCCCCCNc3c4c(nc5ccccc35)CCCC4)c2)nc1OCC1CC1` the same measures were 3.2 nM, 15.2 nM and 62.2 nM.
Regarding `CCn1cc(C(=O)O)c(=O)c2ccc(-n3cccc3)cc21`, the Papp at 20 h, 100 ug/ml in “in vitro” was 2.5 ×10⁻⁶ cm/s.
As for `CCNC(=O)c1sc(-c2ccnc(NC(=O)CNCCNc3c4c(nc5ccccc35)CCCC4)c2)nc1OCC1CC1`, the IC50 at Cholinesterase amounted to 512 nM; against Acetylcholinesterase, 45.2 nM; in data set [1] it was 114 nM.
For the compound `CNC(=O)c1sc(-c2ccnc(NC(=O)CNCCNc3c4c(nc5ccccc35)CCCC4)c2)nc1OCC1CCC1`, the IC50 at Cholinesterase was determined as 277 nM; on Acetylcholinesterase it was 155 nM; in data set [1], 130 nM.
`COc1nc(-c2ccnc(NC(=O)C3CC3)c2)sc1C(N)=O`: the IC50 was above 1000 nM against Cholinesterase, above 1000 nM against Acetylcholinesterase and 17.2 nM in data set [1].
Turning to `CNC(=O)c1sc(-c2ccnc(NC(=O)C3CC3)c2)nc1OCCc1cn(CCNc2c3c(nc4ccccc24)CCCC3)nn1`, the results for the IC50 (against Cholinesterase; at Acetylcholinesterase; in data set [1]) were 300 nM, 269 nM and 72 nM, respectively.
The compound `CCn1cc(C(=O)O)c(=O)c2cc(F)c(N3CCNC(C)C3)c(F)c21` (stereo unspecified) [LOMEFLOXACIN] gave a Papp at 20 h, 100 ug/ml in “in vitro” of 0.9 ×10⁻⁶ cm/s.
Take `CNC(=O)c1sc(-c2ccnc(NC(=O)C3CC3)c2)nc1OCCc1cn(CCNc2c3c(nc4cc(Cl)ccc24)CCCC3)nn1`: the IC50 at Cholinesterase is above 1000 nM; against Acetylcholinesterase, 38.7 nM; in data set [1], 46.7 nM. Also, the Papp at 20 h, 100 ug/ml in “in vitro” was found to be 4.7 ×10⁻⁶ cm/s.
For `CNC(=O)c1sc(-c2ccnc(NC(=O)CNCCNc3c4c(nc5ccccc35)CCCC4)c2)nc1OCC(C)(C)C`, the IC50 on Cholinesterase is 236 nM; against Acetylcholinesterase, 103 nM; in data set [1], 165 nM.
For `O=C(NCCCNc1c2c(nc3ccccc13)CCCC2)c1sc(-c2ccnc(NC(=O)C3CCC3)c2)nc1OCC1CC1`, in that order: 30.7 nM, 295 nM and 80.7 nM.
For `CNC(=O)c1sc(-c2ccnc(NC(=O)CNCCNc3c4c(nc5ccccc35)CCCC4)c2)nc1OC(C)C` the same measures were 330 nM, 237 nM and 71.6 nM.
For `CC(=O)Nc1cc(-c2nc(OCC3CC3)c(C(=O)NCCCNc3c4c(nc5ccccc35)CCCC4)s2)ccn1`, in that order: 173 nM, 394 nM and 92.8 nM.

The values are drawn from ChEMBL document CHEMBL4706588, “Rational design and biological evaluation of a new class of thiazolopyridyl tetrahydroacridines as cholinesterase and GSK-3 dual inhibitors for Alzheimer's disease” (Eur J Med Chem, 2020).
